PMC7876048, “Mutant-selective degradation by BRAF-targeting PROTACs” (Nature Communications, 2021)
Entries after “also recorded” stand apart in the source; their conditions may differ.

Legend:
BRAF V600E = BRAF V600E (Homo sapiens, UniProt P15056, V600E); experiment: Radiolabeled kinase assay (Reaction Biology); format: biochemical; set-up: purchased Reaction Biology Corps
Procedure: (§1) Kinase assays were performed by Reaction Biology Corps by their protocol in duplicate using Km amounts of ATP calculated for each kinase.

[1] = molecular target: T1, BRAF^WT (SK-BR-3 cells, HER2 amplification) (Homo sapiens, UniProt P15056); experiment: BRAF^WT degradation by immunoblot in SK-BR-3 cells; format: cell-based
T1 construct: endogenous in cells; host or cells: SK-BR-3
T1 sequence (P15056 whole entry): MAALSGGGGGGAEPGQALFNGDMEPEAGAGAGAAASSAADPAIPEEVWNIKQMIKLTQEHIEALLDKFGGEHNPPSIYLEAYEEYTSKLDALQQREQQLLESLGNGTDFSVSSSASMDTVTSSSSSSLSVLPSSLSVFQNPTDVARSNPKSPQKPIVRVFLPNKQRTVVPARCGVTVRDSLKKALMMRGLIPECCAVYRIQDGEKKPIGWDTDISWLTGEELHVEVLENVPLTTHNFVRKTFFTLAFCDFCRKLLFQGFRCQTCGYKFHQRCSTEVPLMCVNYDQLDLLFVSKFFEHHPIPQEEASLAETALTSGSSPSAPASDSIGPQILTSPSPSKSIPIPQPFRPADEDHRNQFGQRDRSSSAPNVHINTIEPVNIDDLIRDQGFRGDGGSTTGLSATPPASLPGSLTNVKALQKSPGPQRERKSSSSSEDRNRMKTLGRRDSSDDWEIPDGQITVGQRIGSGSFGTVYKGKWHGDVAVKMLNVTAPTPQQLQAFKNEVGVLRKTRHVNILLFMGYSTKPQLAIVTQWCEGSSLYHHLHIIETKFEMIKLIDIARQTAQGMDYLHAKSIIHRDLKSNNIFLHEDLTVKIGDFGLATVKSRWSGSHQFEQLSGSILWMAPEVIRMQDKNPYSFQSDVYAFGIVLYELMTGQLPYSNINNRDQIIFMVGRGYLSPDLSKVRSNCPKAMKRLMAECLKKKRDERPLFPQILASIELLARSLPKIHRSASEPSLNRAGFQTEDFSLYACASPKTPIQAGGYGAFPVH
Procedure: (§2) Cells were plated in 6 well dishes (5 × 10^5–8 × 10^5 cells) and allowed to attach overnight. […] The plates were then placed on ice and washed 1x with chilled PBS and lysed in buffer containing 25 mM Tris-HCl [pH 7.4], 0.25% sodium deoxycholate, 150 mM NaCl, 1% Triton X-100, supplemented with protease inhibitors (1x Roche protease inhibitor cocktail) and phosphatase inhibitors (10 mM NaF, 1 mM Na3OV4, and 20 mM β-glycerophosphate). Lysates were then cleared at 21,000 g for 10 min at 4 °C. Protein concentrations of the supernatants were then quantified using a Pierce BCA Protein Assay. 12–40 µg of protein were separated using a gradient (4–20%) Criterion TGX precast gel and transferred unto a nitrocellulose membrane. The membranes were then blocked in 5% non-fat milk in TBST (Tris-buffered Saline with Tween 20) for 1 h before probing with the indicated primary antibody overnight. Membranes were imaged using Bio-Rad Image Lab software using ECL prime detection reagent (GE Healthcare, RPN2232 or ThermoScientific, 34095).
(§3) Western blot data was quantified by using the band feature in Image Lab, and values were averaged and analyzed in GraphPad Prism. DC50 and DMAX values were fitted using a three parameter [inhibitor] versus response and reported directly from the Prism output. Mean ± SD and unpaired t-tests were performed in GraphPad Prism.

BRAF (G464V) = molecular target: T2, BRAF (G464V) (Homo sapiens, UniProt P15056, G464V); experiment: Radiolabeled kinase assay (Reaction Biology); format: biochemical
T2 construct: purchased Reaction Biology Corps
T2 sequence (P15056 whole entry G464V): as the sequence (P15056 whole entry) above, with G464V counted along it
Procedure: as §1

[2] = molecular target: T3, BRAF^V600E (SK-MEL-28 cells, homozygous) (Homo sapiens, UniProt P15056, V600E); experiment: BRAF degradation by immunoblot in SK-MEL-28 cells; format: cell-based
T3 construct: endogenous in cells; host or cells: SK-MEL-28
T3 sequence (P15056 whole entry V600E): as the sequence (P15056 whole entry) above, with V600E counted along it
Procedure: as §2, §3

[3] = molecular target: T4, BRAF^G466V (H1666 cells, heterozygous, Class 3) (Homo sapiens, UniProt P15056, G466V); experiment: BRAF degradation by immunoblot in H1666 cells; format: cell-based
T4 construct: endogenous in cells; host or cells: H1666
T4 sequence (P15056 2-766 G466V): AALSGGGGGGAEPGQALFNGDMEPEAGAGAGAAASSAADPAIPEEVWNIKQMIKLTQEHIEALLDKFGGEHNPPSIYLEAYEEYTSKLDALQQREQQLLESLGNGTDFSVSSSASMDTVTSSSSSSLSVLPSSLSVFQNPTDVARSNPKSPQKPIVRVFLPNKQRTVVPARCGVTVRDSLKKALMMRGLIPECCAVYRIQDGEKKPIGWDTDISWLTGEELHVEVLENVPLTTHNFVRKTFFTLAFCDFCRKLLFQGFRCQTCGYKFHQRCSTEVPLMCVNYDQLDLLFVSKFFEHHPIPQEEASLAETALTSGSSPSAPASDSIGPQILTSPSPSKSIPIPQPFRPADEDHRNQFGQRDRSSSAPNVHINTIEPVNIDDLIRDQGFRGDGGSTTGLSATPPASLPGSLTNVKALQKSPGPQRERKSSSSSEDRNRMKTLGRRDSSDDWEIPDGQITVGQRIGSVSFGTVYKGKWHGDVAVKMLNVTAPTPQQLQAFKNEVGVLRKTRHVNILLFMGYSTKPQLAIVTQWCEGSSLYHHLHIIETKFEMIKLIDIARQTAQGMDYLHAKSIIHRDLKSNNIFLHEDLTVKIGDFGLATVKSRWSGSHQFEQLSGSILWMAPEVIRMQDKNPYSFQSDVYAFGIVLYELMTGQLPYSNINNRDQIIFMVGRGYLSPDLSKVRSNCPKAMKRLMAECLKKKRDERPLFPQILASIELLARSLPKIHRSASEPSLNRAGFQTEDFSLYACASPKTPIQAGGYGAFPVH
Procedure: as §2, §3

[4] = tested on: SK-MEL-246 melanoma xenograft (Class 2, BRAF^G469A); experiment: SK-MEL-246 xenograft efficacy study; format: in vivo, mice
Procedure: (§4) 10 million SK-MEL-246 cells were subcutaneously implanted in female nu/nu mice. The tumor volumes and mice weights were measured twice a week after the implantation. […] All studies were performed in compliance with institutional guidelines under an Institutional Animal Care and Use Committee (IACUC) approved protocol. Investigators were not blinded when assessing the outcome of the in vivo experiments.

[5] = molecular target: T5, BRAF^WT (NCI-H23 cells, K-RAS^G12C) (Homo sapiens, UniProt P15056); experiment: BRAF^WT degradation by immunoblot in NCI-H23 cells; format: cell-based
T5 construct: endogenous in cells; host or cells: NCI-H23
T5 sequence (P15056 2-766, stated change not applied): as the sequence (P15056 2-766 G466V) above, with V465G counted along it
Procedure: as §2, §3

[6] = molecular target: T6, BRAF-p61^V600E (HCC-364 vr1 cells) (Homo sapiens, UniProt P15056+P40337, DEL169-380/V600E); experiment: BRAF degradation by immunoblot in HCC-364 vr1 cells; format: cell-based
T6 construct: endogenous in cells; host or cells: SK-MEL-239 C4; HCC-364 vr1
T6 sequence (P15056 with tags, fused parts or gaps DEL169-380/V600E): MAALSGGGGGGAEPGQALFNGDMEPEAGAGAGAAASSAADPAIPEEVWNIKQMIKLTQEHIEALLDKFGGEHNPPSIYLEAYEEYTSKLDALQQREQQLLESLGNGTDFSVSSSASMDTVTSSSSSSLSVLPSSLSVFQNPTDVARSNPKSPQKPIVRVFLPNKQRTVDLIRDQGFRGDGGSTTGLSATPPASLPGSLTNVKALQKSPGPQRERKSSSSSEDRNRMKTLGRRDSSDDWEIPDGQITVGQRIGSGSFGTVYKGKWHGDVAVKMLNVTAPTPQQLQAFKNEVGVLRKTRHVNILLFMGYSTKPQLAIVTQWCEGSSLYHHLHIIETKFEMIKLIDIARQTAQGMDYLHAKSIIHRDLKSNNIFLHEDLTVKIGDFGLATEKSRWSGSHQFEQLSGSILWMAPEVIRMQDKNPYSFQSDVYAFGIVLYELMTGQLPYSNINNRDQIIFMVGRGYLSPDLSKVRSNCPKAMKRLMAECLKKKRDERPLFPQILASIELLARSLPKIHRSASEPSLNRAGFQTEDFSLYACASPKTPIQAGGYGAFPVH
T6 sequence (P40337 whole entry, stated change not applied): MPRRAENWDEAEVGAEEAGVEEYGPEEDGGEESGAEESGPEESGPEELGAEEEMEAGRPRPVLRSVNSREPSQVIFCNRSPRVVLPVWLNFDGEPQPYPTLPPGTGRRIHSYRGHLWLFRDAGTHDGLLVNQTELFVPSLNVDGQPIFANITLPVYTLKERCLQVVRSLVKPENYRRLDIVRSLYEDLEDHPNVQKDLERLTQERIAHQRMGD
T6 sequence (Q15370 whole entry partner): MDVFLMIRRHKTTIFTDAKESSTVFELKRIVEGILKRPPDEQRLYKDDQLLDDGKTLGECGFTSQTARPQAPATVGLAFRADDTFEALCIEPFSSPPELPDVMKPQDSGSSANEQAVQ
T6 sequence (Q15369 whole entry partner): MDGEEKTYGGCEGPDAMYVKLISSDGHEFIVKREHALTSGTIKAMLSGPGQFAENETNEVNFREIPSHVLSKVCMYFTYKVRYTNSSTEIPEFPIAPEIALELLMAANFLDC
Procedure: as §2, §3

[7] = Body weight in SK-MEL-246 efficacy study; format: in vivo, mice; details: either dose (50 mg/kg BID, 100 mg/kg QD)
Procedure: as §4

p-ERK (CAL-12-T cells) = experiment: p-ERK inhibition by immunoblot in CAL-12-T cells; format: cell-based
Procedure: as §2, §3

[8] = molecular target: T7, BRAF^WT (A-431 cells, HER1 amplification) (Homo sapiens, UniProt P15056); experiment: BRAF^WT degradation by immunoblot in A-431 cells; format: cell-based
T7 construct: endogenous in cells; host or cells: A-431
T7 sequence (P15056 whole entry): as the sequence (P15056 whole entry) above
Procedure: as §2, §3

BRAF WT = molecular target: T8, BRAF WT (Homo sapiens, UniProt P15056); experiment: Elisa kinase inhibition assay (Carna Biosciences); format: biochemical; details: Km ATP, duplicate
T8 construct: purchased Carna Biosciences
T8 sequence (P15056 whole entry): as above
Procedure: Kinase assays were performed by Carna Biosciences by their protocol in duplicate using Km amounts of ATP calculated for each kinase.

[9] = tested on: MEK and ERK phosphorylation (SK-MEL-28 cells); experiment: MEK and ERK phosphorylation by immunoblot in SK-MEL-28 cells; format: cell-based
Procedure: as §2, §3

[10] = tested on: CAL-12-T cells (Class 3, BRAF^G466V); experiment: Cell proliferation (MTS) assay; format: cell-based; details: 5 days
Procedure: […] 2 mg/ml MTS (Promega Corp., Madison, WI: G5421) and 25 μM phenazine methosulfate (Sigma, St. Louis, MO) were combined 19:1 and then added to cells (1 volume combined reagent: 5 volumes medium) and incubated for 1–3 h. Mitochondrial reduction of MTS to the formazan derivative was monitored by measuring the medium’s absorbance at 480 nm using a Perkin Elmer Envision Plate reader.

[11] = molecular target: T9, V5-tagged BRAF^WT (NIH3T3 cells) (Homo sapiens, UniProt P15056); experiment: V5-BRAF degradation by immunoblot in inducible NIH3T3 cells; format: cell-based
T9 construct: expressed in transfected cells; host or cells: NIH3T3 (mouse fibroblasts), doxycycline-inducible expression
T9 sequence (P15056 whole entry): as above
Procedure: as §2, §3

[12] = 1 μM cobimetinib pre-treatment 1 hour, then 1 μM SJF-0628

Chain of BRAF V600E (P15056 whole entry V600E): as the sequence (P15056 whole entry) above, with V600E counted along it

CCCS(=O)(=O)Nc1ccc(F)c(C(=O)c2c[nH]c3ncc(-c4ccc(N5CCN(CC(=O)NC(C(=O)N6CC(O)CC6C(=O)NCc6ccc(-c7scnc7C)cc6)C(C)(C)C)CC5)cc4)cc23)c1F (stereo not shown) [SJF-0628]
IC50 (BRAF V600E): 1.87 nM | time at which complete degradation of BRAF^WT observed [1, 12]: 12 h | time to PROTAC-induced degradation of BRAF^WT [1, 12]: ≤ 4 h | degradation of BRAF^WT ([1]; PROTAC concentrations greater than 1 µM): ~ 50% | SJF-0628-dependent BRAF^WT degradation ([1]; lapatinib 2-hour pre-treatment): 10% | SJF-0628-dependent BRAF^WT degradation ([1]; without lapatinib pre-treatment): 48% | IC50 (BRAF (G464V)): 9.18 nM | time for which BRAF^V600E degradation and p-ERK inhibition was sustained ([2]; 100 nM): up to 72 h | recovery of BRAF levels and MAPK phosphorylation after wash-out ([2]; 100 nM 24 h treatment, wash-out, 24 h after): 30% | time to near complete / maximal BRAF^V600E degradation ([2]; 100 nM time course): ≤ 4 h | DC50 ([2]; 20-24 h treatment, read-out: DC50 (half-maximal degradation)): 6.8 nM | Dmax ([2]; 20-24 h treatment, read-out: DMAX (percent of maximal degradation)): > 95% | DC50 [3]: 29 nM | Dmax ([3]; NCI-H1666): > 80% | effect on tumor growth ([4]; once daily 100 mg/kg i.p.): minor response | effect on tumor growth ([4]; twice daily 50 mg/kg i.p., within 10 days, 50 mg/kg): tumor regression; also recorded: tumor shrinkage beyond the initial tumor size | BRAF^WT degradation ([5]; MRTX849 pre-treatment 2 h): 20% | BRAF^WT degradation ([5]; PROTAC alone): 50% | DC50 [6]: 147 nM | Dmax ([6]; HCC364): > 90% | body weight loss [7]: did not observe a significant body weight loss | inhibition of p-ERK (p-ERK (CAL-12-T cells)): > 70% | degradation of BRAF^WT ([8]; A-431 cells, PROTAC concentrations greater than 1 µM): ~ 30% | PROTAC-dependent degradation of BRAF^WT ([8]; GDC-0623 pre-treatment (500 nM, 3 h), SJF-0628 20 h, A431 (also OVCAR-8, SK-BR-3)): minimal PROTAC-dependent degradation | IC50 (BRAF WT): 39.2 nM | concentration giving maximal inhibition of MEK and ERK phosphorylation / maximal suppression of p-ERK [9]: 10 nM | increase in potency of the PROTAC over epimer SJF-0661 (p-ERK suppression) [9]: 10 fold | inhibition of cell growth / effect on cell viability [10]: minimal inhibition of cell growth; also recorded: minimal effect on cell viability | PROTAC-mediated BRAF^WT degradation ([11]; 1 µM PD0325901 pre-treatment 3 h, SJF-0628 1 μM 20 h): ~ 80% | degradation of BRAF^WT by the PROTAC ([11]; 1 µM SCH772984 pre-treatment 3 h, SJF-0628 20 h): ~ 90% | expression of WT RAF family members ([11]; doxycycline-inducible V5-BRAF, no pre-treatment): spared BRAF^WT, ARAF, and CRAF
